Results: patent US6117849A, “S-(+)-adenosylmethionine and 3'-azido-2', 3'-dideoxy-nucleoside complexes as potent inhibitors of HIV-replication” (Symbio Herborn Group GmbH & Co., priority 1996, dated 2000)
Several values for one entry are separate records, joined by “and”; a condition that tells them apart may be missing. Identical values can stand only once. Like-named read-outs stand apart in the source and are kept apart here.

Assays:
[1] = tested on: T-lymphocyte cell cultures; assay: in vitro; conditions: for therapeutic index: in vitro, considering cytotoxicity
Procedure: (§1) Viability of the T cells was determined by means of a tetrazolium salt (MTT) metabolic assay.--(see also: Schwartz, O., et al., AIDS Rcs. Hum. Retroviruses, 4 441-448, 1988).

[2] = target: T1, reverse transcriptase (RT) (HIV-1 M:B_HXB2R, UniProt P04585); format: biochemical; parameters: A2: RT in cord-blood lymphocyte cultures infected with HIV from an AIDS patient; conditions: for Ki: RT
Procedure: The second in-vitro test uses the enzymatic activity of RT, testing the kinetic and inhibitory action of the molecular complexes. The cloning of the RT in biologically active form made it possible to have large quantities of the RT enzyme available for these studies (RT from Sigma, lot # R 9376).
The steady state reaction conditions for RT are chosen that approximate physiological conditions are met: pH 7.45 (37° C.), ionic strength of 150 mM, routinely a buffer was employed consisting of 50 mM TRIS-HCl, 100 mM KCl, 5 mM MgCl2, the addition of 10 μg/mL bovine serum albumin were included. […] The aforementioned precautions designed to avoid potential reduction of SAM in the presence of DTT are taken into accounts to preclude any distortions of the kinetic behavior of the RT enzyme in the presence of the various substrates e.g. as our molecular compounds. […] The enzyme concentrations of RT was approx. 20 nM, T-P (template-primer) […] and 25 μM of [^3 H]-dNTP (assay conditions are modified fro those of Mayunder et al., J. biol. Chem.,263, 15657, 1988). […] In case both parameters are effected to the same extent, then the inhibition is uncompetitive. In order to facilitate the difference between SAM kinetics and those for the molecular complexes we studied first SAM kinetics and subsequently the kinetics in the presence of the molecular complexes. […] Similar experiments have been carries out with dGTP.
The enzyme was assayed with 50 nM primer sites on poly (rA): oligo (dT), and variable concentrations of [^3 H] dTP as substrates in a reaction mixture as described above at pH 7.5 (37° C.).

[3] = target: T1, reverse transcriptase (RT); format: biochemical; parameters: A2: RT in cord-blood lymphocyte cultures infected with HIV from an AIDS patient; conditions: no DTT
[4] = in vitro; conditions: t-lymphocyte cultures
Procedure: as §1

[5] = target: T1, reverse transcriptase (RT); assay: In vitro RT inhibition assay with F-dUP/F-dU or THF; format: biochemical; parameters: A2: RT in cord-blood lymphocyte cultures infected with HIV from an AIDS patient
[6] = tested on: HIV-1 isolate of HIV IIB; assay: HIV replication in de novo infected lymphocyte cultures, viral core protein p24 endpoint; format: cell-based, HIV-1 (in human peripheral blood lymphocytes)
Procedure: For this purpose, SAM has been tested in a dose response titration ranging from 1000 μg/mL to 10 μg/mL final concentrations for the ability to inhibit HIV replication in de novo infected cells. Endpoint in this assay was the quantitative determination of the concentration of the viral core protein p24 as described by Mueller et al. (Mueller, Ch., Moritz, R., Prigge, G., Weitzel, D., Kunze, R., Kage, A., Koettgen, E., Fresenius Z. Anal. Chem.,330, 352-353, 1988). […] The toxicity testing of cellular proliferation was performed according to J. Mosmann (J. Immunological Methods, 65, 55-63, 1983). […] All experiments were carried out in triplicate cultures, including those for the various concentrations of the molecular complexes tested.--The lymphocytes were infected with a standardized preparation of HIV-1 isolate of HIV IIB. The cells were sedimented by low speed centrifugation, the sediment resuspended in the assay buffer (standard), and the resuspended cells were inoculated by adjusting to the following conditions: 100 ng of viral core protein p24/mL and 3200 pg HIV RNA/mL, respectively. Normally 3×10^8 lymphocytes were suspended in 1 mL if the HIV inoculum, and incubated at 37° C. for 60 minutes. After washing the cells twice with 50 mL of culture medium the cells were resuspended at a concentration of 3×10^6 cells/mL in culture medium which contains 10 units/mL of human recombinant interleukin-2. 100 μL of this cell suspension were added to 100 μL of the pre-diluted solution of the compounds to be tested, without adding any salt or protein. The entire assay was cultivated in humidified atmosphere in the presence of 5% CO2 at 37° C. After the 4th day of infection the viral replication was determined in the lymphocyte cultures. The end point of the titration was the determination of the viral core protein p24 in the supernatant of each of the lymphocyte cultures. 150 μL of the supernatant were removed and transferred to a vial containing 50 μL/well SDS at a final concentration of 0.08% (w/w). The concentration of the synthesized p24 by the HIV infected cells was determined according to Mueller et al., using recombinant p24 as a standard for calibration.

[7] = AZT; cited from earlier work
[8] = in vivo; cited from earlier work
[9] = SAM and AZT levels in HIV-infected patients (plasma, CSF)
[10] = target: T1, reverse transcriptase (RT); conditions: read-out: inhibiting concentration, 50% of RT activity; tosylate-bis-sulfate salt, with DTT; cited from earlier work
[11] = tested on: human peripheral blood lymphocytes; assay: Cell toxicity by proliferation test in lymphocyte cultures
Procedure: For this purpose, SAM has been tested in a dose response titration ranging from 1000 μg/mL to 10 μg/mL final concentrations for the ability to inhibit HIV replication in de novo infected cells. Endpoint in this assay was the quantitative determination of the concentration of the viral core protein p24 as described by Mueller et al. (Mueller, Ch., Moritz, R., Prigge, G., Weitzel, D., Kunze, R., Kage, A., Koettgen, E., Fresenius Z. Anal. Chem.,330, 352-353, 1988). […] The toxicity testing of cellular proliferation was performed according to J. Mosmann (J. Immunological Methods, 65, 55-63, 1983). […] All experiments were carried out in triplicate cultures, including those for the various concentrations of the molecular complexes tested.--The lymphocytes were infected with a standardized preparation of HIV-1 isolate of HIV IIB. The cells were sedimented by low speed centrifugation, the sediment resuspended in the assay buffer (standard), and the resuspended cells were inoculated by adjusting to the following conditions: 100 ng of viral core protein p24/mL and 3200 pg HIV RNA/mL, respectively. […] After the 4th day of infection the viral replication was determined in the lymphocyte cultures. […] The concentration of the synthesized p24 by the HIV infected cells was determined according to Mueller et al., using recombinant p24 as a standard for calibration.

[12] = tested on: HIV; assay: HIV replication in T-lymphocyte cell cultures (cytotoxic effect and p24 production); format: cell-based
[13] = Stability / half-life in human plasma (chiral HPLC, fluorescence)
Source text: In order to determine the stability of these complexes in physiological conditions, the half-life times of the compounds were estimated in human plasma after separation on a chiral column and using a HPLC apparatus applying, monitoring the fluorescence of both components at 310 nm (excitation at 278 nm) after complete separation of the two peaks.

[14] = tested on: IL-β, IL-2; assay: Cytokine biosynthesis after stimulation of lymphocytes; format: cell-based; conditions: after phytohemagglutination stimulation
[15] = Intracellular metabolism to the triphosphate; format: in vitro ADME
[16] = rapidly dried in vacuo, water-free
[17] = tested on: bone marrow stem cells; conditions: vs AZT
[18] = tested on: mitochondrial DNA replication; conditions: vs AZT
[19] = no DTT, pH 7.45-7.5, 37° C., read-out: KM
[20] = HIV replication, p24, standard conditions
[21] = addition of human serum albumin
[22] = 1 h, complex: 400 mg SAM equivalent 250 mg AZT

“3'-azido-2',3'-2'-fluorothymidine [F))/AZT (AZT (2']” showed a therapeutic index [1] of 7.000, a Ki ([2]; no DTT) of 100 ± 10 nM and a Km [2, 19] of 0.5 ± 0.01 µM. It also gave a kcat [3] of 0.0483 s⁻¹.

Compound “3'-azido-2',3'-dideoxyadennine [SAM/AZA]” has a therapeutic index [1] of 4.500, a Ki ([2]; no DTT) of 280 ± 20 nM and a Km [2, 19] of 0.71 ± 0.02 µM. For the same compound, the kcat [3] was 0.0283 s⁻¹.

With “3'-azido-2',3'-dideoxyguanosine [SAM/AZG]” the therapeutic index [1] was 5.700, the Ki ([2]; no DTT) was 240 ± 10 nM and the Km [2, 19] was 0.7 ± 0.02 µM. For the same compound, the kcat [3] was 0.05 s⁻¹.

Compound 3'-azido-2',3'-dideoxyinosine [SAM/AZI] has a Ki ([2]; no DTT) of 130 ± 15 nM, a Km ([2]; read-out: KM) of 0.41 ± 0.03 µM and a kcat [3] of 0.035 s⁻¹.

Compound 3'-azido-2',3'-dideoxyuridine [SAM/AZU] has a Km ([2]; read-out: KM) of 0.69 ± 0.015 µM and a kcat [3] of 0.035 s⁻¹.

With `C[S+](CC[C@H](N)C(=O)O)C[C@H]1O[C@@H](n2cnc3c(N)ncnc32)[C@H](O)[C@@H]1O` (single isomer, unassigned) [SAM C1] the selectivity ratio [4] was 2.1, the Km [2] was 0.53 ± 0.02 µM and the kcat [2] was 0.317 s⁻¹ and 0.25 s⁻¹.

With `c1ncc2c(n1)NCCN2` [5,6,7,8-tetrahydropteridine (THF), 5,6,7,8-tetrahydropteridine] the “effect on inhibition of RT” value [5] was “no significant inhibition of the RT”.

For `Cc1cn([C@H]2C[C@H](N=[N+]=[N-])[C@@H](CO)O2)c(=O)[nH]c1=O` [AZT, 3'-azido-2',3'-deoxythymidine], the “inhibition of HIV replication” value ([6]; FIG. 1, p24) is listed as “inhibited HIV replication in a dose dependent response”, the plasma half-life [7] is listed as 1 h and the “side effects upon prolonged administration” value [8] is listed as “peripheral neuropathological effects”. The “toxicity at increased dose” value [8] was “bone marrow toxicity”, the Cmax ([9]; human, plasma, 250 mg) was 2500 ng/mL and the kcat [2] was “approx. 1.5 sect^-1”.

In the case of `O=c1[nH]c(=O)n([C@H]2C[C@H](O)[C@@H](CO)O2)cc1F` [F-dU], the “effect on inhibition of RT” value [5] is reported as “no influence on the inhibition of RT”.

With `[3H]C12CNc3nc(N)[nH]c(=O)c3N1CN(c1ccc(C(=O)N[C@@H](CCC(=O)O)C(=O)O)cc1)C2` (stereo partly drawn) [N^5, N^10-methylene-6-[^3 H]-THF] the “effect on inhibition of RT” value [5] was “no significant inhibition of the RT”.

In the case of `C[S+](CC[C@H](N)C(=O)O)C[C@H]1O[C@@H](n2cnc3c(N)ncnc32)[C@H](O)[C@@H]1O` (stereo partly drawn) [SAM ts HSO4 H2 SO4], the selectivity ratio [4] is given as 2.4, the IC50 [10] is given as 250000 to 501000 nM and the Km [2] is given as 0.51 ± 0.02 µM. The kcat [2] was 0.333 s⁻¹ and 0.3 s⁻¹.

For `Nc1ccn([C@H]2CC[C@@H](CO)O2)c(=O)n1` [ddC], the “side effects upon prolonged administration” value [8] is given as “peripheral neuropathological effects”.

In the case of “(+)-SAM-3'-azido-2',3'-dideoxythymidine complex [SAM/AZT]”, the “inhibitory constant Ki(1), at 50% inhibition” value [6, 20] is reported as “≈ 0.9 ng/mL”, the “inhibitory constant Ki(2), at 50% inhibition” value [6, 20] is reported as “≈ 12.5 μg/mL” and the “Ki (first, low)” value [6, 21] is reported as 0.0005 to 0.0008 µg/mL. For the same compound, the “Ki (second, high)” value [6, 21] was roughly 10 µg/mL, the “Ki (first, low)” value ([6]; ionic strength 0.075 M) was 0.0006 to 0.0008 µg/mL and the “Ki (second, high)” value ([6]; ionic strength 0.075 M) was 8 to 10 µg/mL. The “increase of the cell toxicity” value ([11]; SAM-AZT complex compared with SAM alone) was “approx. 35%”, the “cell toxicity with respect to AZT alone” value ([11]; vs AZT alone) was “considerable of reduction of cell toxicity” and the maximum inhibition ([12]; inhibition of the cytotoxic effect) was 100%. For the same compound, the IC50 ([12]; p24 production, read-out: IC50, inhibition of p24 production) was 10 nM, the 50% cytotoxicity ([1]; MTT, as mass concentration of complex) was roughly 15.5 µg/mL and the CC50 ([1]; read-out: 50% cytotoxicity, MTT) was 250000 nM. For the same compound, the “half-life of SAM” value ([13]; from AZT-SAM complex) was “more than 10 h”, the “half-life of SAM, average” value ([13]; from AZT-SAM complex) was 12 h and the “half-life of AZT” value ([13]; from the complex, depends on load) was 2 to 3 h. The “cytokine biosynthesis (IL-β, IL-2)” value [14] was “enhanced significantly”, the “accumulation / conversion to triphosphate” value [15] was “does not accumulate, but being readily converted to the triphosphate derivative” and the hygroscopicity [16] was “hygroscopic”. For the same compound, the “toxicity for bone marrow stem cells” value [17] was “less toxic than AZT”, the “toxicity/inhibition of mitochondrial DNA replication” value [18] was “less toxic as well as inhibitory to mitochondrial DNA replication” and the “AZT level (almost 50% of that in plasma)” value [9, 22] was 0.25 µg/mL. The SAM level [9, 22] was 600 ng/mL, the pharmacokinetic behaviour ([9]; HIV patients) was “lower elimination rate for SAM” and the “dose reduction of AZT” value ([9]; administered as complex with SAM) was “approx. 30%”. For the same compound, the “increase of SAM and AZT levels in CSF and plasma” value ([9]; approved dose 250 mg AZT at 4 h intervals) was 25-30% and the “AZT level in plasma” value ([9]; complex: 400 mg SAM equivalent 250 mg AZT) was 0.543 µg/mL.
